In article PMC3734245, “Surface Display and Bioactivity of Bombyx mori Acetylcholinesterase on Pichia pastoris” (PLoS ONE, 2013) one finds IC50 data, which are given here for 13 compounds.

Each structure is given as a SMILES string.

What is called IC50 is the midpoint of a concentration-inhibition curve. Low values mean inhibition by little substance, high ones a need for much substance.

This assay has as its target T1, displayed BmAChE (Bombyx mori, UniProt A5A2M5).
T1 construct: signal peptide and hydrophobic C-terminal tail removed; N-terminal FLAG tag; (Gly4Ser)3 linker to S. cerevisiae AGalpha1 anchor at C-terminus; bmace about 1900 bp; primers encode N-terminal RSWANH and C-terminal TGPYSS
Nature of the assay: Ellman assay, yeast cell suspension displaying the enzyme. Type of assay: cell-based.

T1 sequence (A5A2M5 entry or part of it): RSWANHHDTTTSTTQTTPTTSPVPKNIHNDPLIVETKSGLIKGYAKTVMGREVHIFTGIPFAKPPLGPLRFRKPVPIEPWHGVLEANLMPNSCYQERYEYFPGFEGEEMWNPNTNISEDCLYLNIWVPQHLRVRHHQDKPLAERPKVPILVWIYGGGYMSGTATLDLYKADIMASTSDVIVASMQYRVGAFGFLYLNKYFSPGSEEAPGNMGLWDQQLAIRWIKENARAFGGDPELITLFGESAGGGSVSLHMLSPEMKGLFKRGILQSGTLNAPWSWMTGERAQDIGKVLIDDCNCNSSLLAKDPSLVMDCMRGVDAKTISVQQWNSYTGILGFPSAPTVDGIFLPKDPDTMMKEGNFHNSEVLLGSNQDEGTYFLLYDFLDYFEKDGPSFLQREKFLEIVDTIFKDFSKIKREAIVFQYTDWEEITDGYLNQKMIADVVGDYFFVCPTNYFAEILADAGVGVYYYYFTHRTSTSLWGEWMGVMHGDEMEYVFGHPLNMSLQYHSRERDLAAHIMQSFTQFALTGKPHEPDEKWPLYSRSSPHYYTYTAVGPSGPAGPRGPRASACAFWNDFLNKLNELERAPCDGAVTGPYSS

In turn, `COP(=O)(OC)OC=C(Cl)Cl` [dichlorphos] registered an IC50 of 903 nM.

`CNC(=O)Oc1cccc2c1OC(C)(C)C2` [carbofuran] came in with an IC50 of 1.92 nM.

Compound `CCOP(=S)(OCC)Oc1ccc([N+](=O)[O-])cc1` [parathion] showed an IC50 of 1130 nM.

Consider `COP(N)(=S)Oc1ccccc1C(=O)OC(C)C` (stereo not shown) [isocarbophos], for which the IC50 stood at 910 nM.

`CCCCN(CCCC)SN(C)C(=O)Oc1cccc2c1OC(C)(C)C2` [carbosulfan]: the half-maximal inhibitory concentration (IC50) came to 113 nM.

In the case of `CNC(=O)Oc1ccccc1C(C)C` [isoprocarb], the concentration for half-maximal inhibition (IC50) is 11.1 nM.

In turn, `CNC(=O)Oc1ccc2c(c1)[C@]1(C)CCN(C)[C@@H]1N2C` [eserine] had a half-maximal inhibitory concentration (IC50) of 41.7 nM.

The compound `COP(N)(=O)SC` (stereo not shown) [methamidophos] returned a half-inhibitory concentration (IC50) of 1070 nM.

Compound `CNC(=O)ON=C(C)SC` [methomyl] registered an IC50 of 64.1 nM.

Consider `CCOC(=O)CC(SP(=S)(OC)OC)C(=O)OCC` (stereo not shown) [malathion], for which inhibition was half-maximal at 1410 nM (IC50).

Turning to `CNC(=O)CSP(=S)(OC)OC` [dimethoate], inhibition was half-maximal at 1140 nM (IC50).

`COP(=O)(OC)C(O)C(Cl)(Cl)Cl` (stereo not shown) [trichlorphon]: the half-inhibitory concentration (IC50) was found to be 240 nM.

`CNC(=O)Oc1cc(C)c(SC)c(C)c1` [methiocarb] yielded a concentration for half-maximal inhibition (IC50) of 65.8 nM.
